From patent publication US9688637B2, “3-amidobenzamides and uses thereof for increasing cellular levels of A3G and other A3 family members” (Northwestern University, priority 2014, dated 2017)

Tests used:
293T cells = assay: Cellular cytotoxicity by counting cells after 48 hrs with compound vs DMSO; type: cell-based; conditions: concentration at which cell death was seen; 48 hrs
Experimental: To screen compounds that can boost A3G levels, 293T cells (25,000 cells per well in 96-well plate) stably expressing A3G-Luc protein or A3G-Luc/Vif proteins were plated. After 24 hrs post plating culture medium was replaced with 100 μl of new medium containing either DMSO as a control or various compounds (10 μM concentration). After 48 hrs of incubation with compounds culture medium was removed from each well and replaced with 100 μl of Britelite Plus luciferase assay substrate (PerkinElmer). Following 5 min. of incubation at room temperature, 75 μl of each cell lysate was transferred to a 96-well OptiPlate 96 (PerkinElmer) and luminescence was measured in a VICTOR X2 Multilabel Reader (PerkinElmer). Relative activity of compounds for their boosting capability A3G-Luc activity was calculated by plotting DMSO-treated A3G-Luc or A3G-Luc/Vif cells as 100%. Cellular cytotoxicity was measured by counting number of cells after 48 hrs of incubation with compounds compared to DMSO treated cells.

HIV NL4-3 = assay: Infectivity of virions from 293T co-transfected with NL4-3 and A3G, TZM-bl cells; type: cell-based, HIV-1; conditions: co-transfection of 293T with HIV NL4-3 and A3G (FIG. 8)
Experimental: FIG. 8. 293T cells were co-transfected with […] of NL4.3 plasmid DNA and 400 ng of either control or A3F/G DNAs, with or without NU52. Infectivity of equal amounts of resulting viruses (normalized by HIV-1 p24 antigen) were measured using TZM-bl cells. NU-52 treatment of producer cell reduced infectivity of virus produced from those cells.

Structure (SMILES): COc1ccc(C(=O)Nc2ccc(Cl)c(Cl)c2)cc1NC(=O)C(C)C [NU-52]
- Cytotoxicity: Cell Death at (293T cells): Cell Death at 30 μM
- infectivity of virions (HIV NL4-3): decreased infectivity
